According to patent US10934274B2, “Quinoline derivatives as TAM RTK inhibitors” (Qurient Co., Ltd., priority 2015, dated 2021):
pKd: −log10 of the molar value.

Assays:
Met = biological target: T1, Met (Homo sapiens, UniProt P08581); assay: LanthaScreen Eu kinase binding assay, Met; details: Tracer 236, read-out: cMet kinase binding activity (Kd)
T1 construct: purchased Life Technologies

Mer = biological target: T2, Mer (Homo sapiens, UniProt Q12866); assay: LanthaScreen Eu kinase binding assay, Mer; details: Tracer 236
T2 construct: purchased Life Technologies
T2 sequence (Q12866 21-999): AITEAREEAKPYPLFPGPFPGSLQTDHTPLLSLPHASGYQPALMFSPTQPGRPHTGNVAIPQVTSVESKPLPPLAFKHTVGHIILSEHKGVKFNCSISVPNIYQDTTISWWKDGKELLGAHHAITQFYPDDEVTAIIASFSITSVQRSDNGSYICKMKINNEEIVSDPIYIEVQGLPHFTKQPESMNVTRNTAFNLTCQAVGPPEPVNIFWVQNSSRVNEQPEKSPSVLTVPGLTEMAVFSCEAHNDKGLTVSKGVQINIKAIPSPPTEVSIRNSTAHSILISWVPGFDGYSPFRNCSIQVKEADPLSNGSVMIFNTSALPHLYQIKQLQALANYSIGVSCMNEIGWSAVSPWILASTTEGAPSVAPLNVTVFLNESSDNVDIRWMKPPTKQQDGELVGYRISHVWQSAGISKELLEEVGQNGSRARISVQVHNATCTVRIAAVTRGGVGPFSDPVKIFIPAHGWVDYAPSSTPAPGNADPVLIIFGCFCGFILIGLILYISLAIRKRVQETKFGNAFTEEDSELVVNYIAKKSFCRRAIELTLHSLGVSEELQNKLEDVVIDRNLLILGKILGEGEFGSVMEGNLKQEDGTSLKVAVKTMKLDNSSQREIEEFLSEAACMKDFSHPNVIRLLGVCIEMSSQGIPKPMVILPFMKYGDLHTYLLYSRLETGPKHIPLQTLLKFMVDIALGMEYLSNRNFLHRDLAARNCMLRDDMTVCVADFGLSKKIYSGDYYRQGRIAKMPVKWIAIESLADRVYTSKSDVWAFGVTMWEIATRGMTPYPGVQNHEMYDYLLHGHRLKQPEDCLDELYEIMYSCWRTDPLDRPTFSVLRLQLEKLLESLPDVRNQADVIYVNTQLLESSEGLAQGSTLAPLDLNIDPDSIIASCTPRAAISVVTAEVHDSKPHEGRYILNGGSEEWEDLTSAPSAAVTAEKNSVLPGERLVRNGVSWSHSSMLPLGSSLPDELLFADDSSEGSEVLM

Axl = biological target: T3, Axl (Homo sapiens, UniProt P30530); assay: LanthaScreen Eu kinase binding assay, Axl; details: Tracer 236
T3 construct: purchased Life Technologies
T3 sequence (P30530 26-894): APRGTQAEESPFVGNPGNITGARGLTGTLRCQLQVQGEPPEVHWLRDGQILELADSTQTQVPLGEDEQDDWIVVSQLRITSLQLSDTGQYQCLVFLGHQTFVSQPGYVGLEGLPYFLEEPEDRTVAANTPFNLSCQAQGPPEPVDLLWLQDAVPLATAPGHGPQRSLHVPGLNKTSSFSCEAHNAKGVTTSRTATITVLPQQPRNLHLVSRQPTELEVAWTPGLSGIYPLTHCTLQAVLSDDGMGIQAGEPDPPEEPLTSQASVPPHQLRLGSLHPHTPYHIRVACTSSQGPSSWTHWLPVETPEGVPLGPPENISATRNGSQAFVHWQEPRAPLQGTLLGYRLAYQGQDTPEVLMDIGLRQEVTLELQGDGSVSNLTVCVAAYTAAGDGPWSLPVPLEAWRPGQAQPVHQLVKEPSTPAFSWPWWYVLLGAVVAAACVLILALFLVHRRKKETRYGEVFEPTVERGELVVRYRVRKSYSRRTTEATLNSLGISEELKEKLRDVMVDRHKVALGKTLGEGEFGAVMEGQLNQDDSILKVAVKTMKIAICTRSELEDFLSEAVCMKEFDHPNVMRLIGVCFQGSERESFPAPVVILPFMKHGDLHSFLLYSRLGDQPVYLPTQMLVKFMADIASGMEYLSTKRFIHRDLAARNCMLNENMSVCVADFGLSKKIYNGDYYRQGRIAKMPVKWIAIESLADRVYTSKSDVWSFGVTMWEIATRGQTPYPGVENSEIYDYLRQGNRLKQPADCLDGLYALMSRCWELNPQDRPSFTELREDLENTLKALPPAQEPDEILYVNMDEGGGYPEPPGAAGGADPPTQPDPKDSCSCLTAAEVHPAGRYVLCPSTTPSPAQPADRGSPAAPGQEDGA

T1 sequence (P08581 25-1390): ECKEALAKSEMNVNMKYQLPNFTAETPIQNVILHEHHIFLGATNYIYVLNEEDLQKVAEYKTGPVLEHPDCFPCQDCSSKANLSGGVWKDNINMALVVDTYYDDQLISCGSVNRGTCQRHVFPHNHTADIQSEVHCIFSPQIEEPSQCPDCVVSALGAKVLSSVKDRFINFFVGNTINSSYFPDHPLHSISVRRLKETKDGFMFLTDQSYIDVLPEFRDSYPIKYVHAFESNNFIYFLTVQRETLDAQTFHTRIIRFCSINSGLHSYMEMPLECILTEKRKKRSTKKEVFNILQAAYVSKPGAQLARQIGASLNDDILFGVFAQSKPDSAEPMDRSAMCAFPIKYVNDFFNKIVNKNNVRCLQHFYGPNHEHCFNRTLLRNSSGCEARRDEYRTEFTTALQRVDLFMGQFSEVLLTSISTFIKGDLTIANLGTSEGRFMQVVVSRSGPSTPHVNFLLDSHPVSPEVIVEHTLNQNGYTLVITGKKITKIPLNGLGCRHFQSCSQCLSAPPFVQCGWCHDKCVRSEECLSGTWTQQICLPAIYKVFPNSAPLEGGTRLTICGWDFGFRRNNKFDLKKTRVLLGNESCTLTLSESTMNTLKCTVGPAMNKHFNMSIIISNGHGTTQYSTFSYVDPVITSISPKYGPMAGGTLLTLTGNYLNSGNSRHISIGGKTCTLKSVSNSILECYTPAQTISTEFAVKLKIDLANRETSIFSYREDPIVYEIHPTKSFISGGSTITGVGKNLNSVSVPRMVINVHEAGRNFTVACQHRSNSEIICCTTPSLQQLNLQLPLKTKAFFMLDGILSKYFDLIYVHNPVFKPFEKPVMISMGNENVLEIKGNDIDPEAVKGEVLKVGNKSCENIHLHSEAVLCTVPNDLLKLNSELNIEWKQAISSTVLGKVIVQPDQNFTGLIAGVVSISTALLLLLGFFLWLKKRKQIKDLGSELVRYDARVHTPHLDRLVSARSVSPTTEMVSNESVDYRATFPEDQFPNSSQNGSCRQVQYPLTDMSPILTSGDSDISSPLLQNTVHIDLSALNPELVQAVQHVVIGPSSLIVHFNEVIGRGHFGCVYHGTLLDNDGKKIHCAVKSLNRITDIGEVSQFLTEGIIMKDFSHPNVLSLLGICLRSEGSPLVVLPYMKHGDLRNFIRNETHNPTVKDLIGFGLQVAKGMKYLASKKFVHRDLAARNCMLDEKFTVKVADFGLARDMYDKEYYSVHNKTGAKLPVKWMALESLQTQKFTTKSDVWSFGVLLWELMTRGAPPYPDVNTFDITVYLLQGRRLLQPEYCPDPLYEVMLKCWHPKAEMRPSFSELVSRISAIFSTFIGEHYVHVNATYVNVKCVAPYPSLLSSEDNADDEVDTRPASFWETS

| Structure (SMILES) | pKd (Met) | pKd (Mer) | pKd (Axl) |
| --- | --- | --- | --- |
| CCOc1cn(C2CCOC2)nc1C(=O)Nc1ccc(Oc2ccnc3cc(OC)c(OC)cc23)cn1 (stereo not drawn) [Compound 76] | 6.00 to 7.00 | > 7.00 | > 7.00 |
| CCOc1cn(CCC#N)nc1C(=O)Nc1ccc(Oc2ccnc3cc(OC)c(OC)cc23)cn1 [Compound 80] | 6.00 to 7.00 | > 7.00 | > 7.00 |
| CCOc1cn(C(C)CC#N)nc1C(=O)Nc1ccc(Oc2ccnc3cc(OC)c(OC)cc23)cn1 (stereo not drawn) [Compound 81] | 6.00 to 7.00 | > 7.00 | > 7.00 |
| CCOc1cn(-c2ccc(Cl)cc2C)nc1C(=O)Nc1ccc(Oc2ccnc3cc(OC)c(OC)cc23)cn1 [Compound 87] | > 7.00 | > 7.00 | > 7.00 |
| CCOc1cn(-c2ccc(F)cc2)nc1C(=O)Nc1ccc(Oc2ccnc3cc(OC)c(OC)cc23)cn1 [Compound 89] | > 7.00 | > 7.00 | > 7.00 |
| CCOc1cn(-c2c(C)cc(OC)cc2C)nc1C(=O)Nc1ccc(Oc2ccnc3cc(OC)c(OC)cc23)cn1 [Compound 92] | > 7.00 | > 7.00 | > 7.00 |
| CCOc1cn(-c2ncc(N)cn2)nc1C(=O)Nc1ccc(Oc2ccnc3cc(OC)c(OC)cc23)cn1 [Compound 93] | > 7.00 | > 7.00 | > 7.00 |

Other lines, results leading:

| pKd (Met) | pKd (Mer) | pKd (Axl) | Structure (SMILES) |
| --- | --- | --- | --- |
| > 7.00 | > 7.00 | > 7.00 | CCOc1cn(C2CCCC2)nc1C(=O)Nc1ccc(Oc2ccnc3cc(OC)c(OC)cc23)cn1 [Compound 3] |
| > 7.00 | > 7.00 | > 7.00 | CCOc1cn(-c2ccccn2)nc1C(=O)Nc1ccc(Oc2ccnc3cc(OC)c(OC)cc23)cn1 [Compound 4] |
| > 7.00 | > 7.00 | > 7.00 | CCOc1cn(-c2cccnn2)nc1C(=O)Nc1ccc(Oc2ccnc3cc(OC)c(OC)cc23)cn1 [Compound 5] |
| > 7.00 | > 7.00 | > 7.00 | CCOc1cn(-c2cnccc2C)nc1C(=O)Nc1ccc(Oc2ccnc3cc(OC)c(OC)cc23)cn1 [Compound 79] |
| > 7.00 | > 7.00 | > 7.00 | CCOc1cn(-c2ccc(F)cc2C)nc1C(=O)Nc1ccc(Oc2ccnc3cc(OC)c(OC)cc23)c(Cl)c1 [Compound 82] |
| > 7.00 | > 7.00 | > 7.00 | CCOc1cn(-c2cccnc2)nc1C(=O)Nc1ccc(Oc2ccnc3cc(OC)c(OC)cc23)cc1F [Compound 85] |
| > 7.00 | > 7.00 | > 7.00 | CCOc1cn(CCOC(F)F)nc1C(=O)Nc1ccc(Oc2ccnc3cc(OC)c(OC)cc23)cn1 [Compound 86] |
